# Test system: TSU-PR1 cells
# Test: TSU-PR1 tumor xenograft in whole-body-irradiated BALB/NUDE mice
# Assay type: in vivo
# Conditions: BALB/NUDE mice irradiated with 400 cGy, s.c. TSU-PR1 tumors; AD-2813 20 mg/kg in cremophor s.c. daily close to tumor; after about 10 days of treatment; compared to control and cremophor groups (FIG. 1)
# Protocol: BALB/NUDE mice were whole body irradiated with 400 cGy, 10 days later they were injected s.c. with 3.5*10e6 TSU-PR1 cells/mouse which are commonly considered as prostate carcinoma cells but recently are also considered by some as bladder carcinoma cells. Eight days later, tumors were formed, and mice were separated into 3 groups: Group 1: a control without any injection. Group 2: were injected s.c. with vehicle (cremophor) Group 3: were treated s.c. daily with AD-2813 (20 mg/kg in cremophor) close to tumor. […] The drastic change in tumor volume is pronounced particularly when compared to the control and treatment with cremophor groups.
smiles,measurement,value
CCCCCCCCCCCCCCNC(CO)C(O)c1ccc(SC)cc1.Cl (stereo not shown) [AD-2813],tumor volume,significant decrease in tumor volume

# From patent US20100311841A1, “SYNTHETIC SPHINGOLIPID ANALOGS” (priority 2007, published 2010)
